Source: the NIST ThermoML archive (doi:10.1021/je900219w)

Legend:
[1] = 101 kPa, Liquid; for viscosity: Capillary tube (Ostwald / Ubbelohde) method; for molar volume: Pycnometric method
[2] = xn = mol fraction of the nth substance listed; conditions: 101 kPa, Liquid; for viscosity: Capillary tube (Ostwald / Ubbelohde) method; for molar volume: Pycnometric method

Cc1cccc(C)c1 [1,3-dimethylbenzene]
[1]
Conditions | molar volume [m3/mol] | viscosity [mPa·s]
303.15 K | 0.0001241 | 0.5501
313.15 K | 0.0001254 | 0.4944
323.15 K | 0.0001266 | 0.4472

Cc1cccc(C)c1 [1,3-dimethylbenzene] + CCCCCCO
[2]
Conditions | molar volume, 303.15 K [m3/mol] | molar volume, 313.15 K [m3/mol] | molar volume, 323.15 K [m3/mol] | viscosity, 303.15 K [mPa·s] | viscosity, 313.15 K [mPa·s] | viscosity, 323.15 K [mPa·s]
x2 = 0 | 0.0001241 | 0.0001254 | 0.0001266 | 0.5501 | 0.4944 | 0.4472
x2 = 0.1 | 0.0001243 | 0.0001256 | 0.0001269 | 0.5979 | 0.5309 | 0.4743
x2 = 0.2 | 0.0001246 | 0.0001258 | 0.0001272 | 0.6825 | 0.5975 | 0.5277
x2 = 0.3 | 0.0001248 | 0.000126 | 0.0001273 | 0.7998 | 0.6894 | 0.6009
x2 = 0.4 | 0.0001249 | 0.0001262 | 0.0001275 | 0.9537 | 0.8068 | 0.6925
x2 = 0.5 | 0.0001251 | 0.0001263 | 0.0001276 | 1.161 | 0.9645 | 0.8141
x2 = 0.6 | 0.0001253 | 0.0001265 | 0.0001277 | 1.442 | 1.173 | 0.97
x2 = 0.7 | 0.0001254 | 0.0001266 | 0.0001278 | 1.833 | 1.457 | 1.179
x2 = 0.8 | 0.0001255 | 0.0001267 | 0.0001279 | 2.357 | 1.833 | 1.448
x2 = 0.9 | 0.0001257 | 0.0001269 | 0.000128 | 3.032 | 2.309 | 1.797

CCCCCCO [hexan-1-ol]
[1]
Conditions | molar volume [m3/mol] | viscosity [mPa·s]
303.15 K | 0.0001259 | 3.829
313.15 K | 0.000127 | 2.879
323.15 K | 0.0001281 | 2.215

CCCCCCO [hexan-1-ol] + Cc1cccc(C)c1
[2], x1 = 1
Conditions | molar volume [m3/mol] | viscosity [mPa·s]
303.15 K | 0.0001259 | 3.829
313.15 K | 0.000127 | 2.879
323.15 K | 0.0001281 | 2.215
